The target in the test is T1, interaction between VCAM-1 and VLA-4 (Homo sapiens, UniProt P05556+P13612).
T1 construct: supplied in their natural form as surface molecules on human U937 cells; host or cells: U937 cells carry VLA-4; The VCAM-1(1-3)-IgG partner was made by transient transfection of COS cells (ATCC CRL1651) and used as culture supernatant
In words: U937/VCAM-1 cell adhesion test (adhesion of U937 cells to hVCAM-1(1-3)-IgG). It is filed as cell-based. The note with it: human U937 cells adhering to hVCAM-1(1-3)-IgG; concentration giving 50% inhibition of adhesion. From the text:
The test method used for the activity of the compounds of the formula I on the interaction between VCAM-1 and VLA-4 is an assay which is specific for this interaction. The cellular binding components, i.e., the VLA-4 integrins, are supplied in their natural form as surface molecules on human U937 cells (ATCC CRL 1593), which belong to the leucocytes group. The specific binding components used are genetically engineered recombinant soluble fusion proteins, consisting of the extracytoplasmatic domain of human VCAM-1 and the constant region of a human immunoglobulin of the subclass IgG1.
Assay for the Measurement of the Adhesion of U937 Cells (ATCC CRL 1593) to hVCAM-1 (1-3)-IgG
1. Preparation of Human VCAM-1(1-3)-IgG and Human CD4-IgG
A genetic construct for the expression of the extracellular domain of human VCAM-1, associated with the genetic sequence of the heavy chain of human immunoglobulin IgG1 (hinge, CH2 and CH3 regions), from Dr. Brian Seed, Massachusetts General Hospital, Boston, USA was employed (cf. Damle and Aruffo, Proc. Natl. Acad. Sci. USA 1991, 88, 6403-6407). The soluble fusion protein hVCAM-1(1-3)-IgG contained the three amino-terminal extracellular immunoglobulin-like domains of human VCAM-1 (Damle and Aruffo, Proc. Natl. Acad. Sci. USA 1991, 88, 6403). CD4-IgG (Zettlmeissl et al., DNA and Cell Biology 1990, 9, 347) served as a fusion protein for negative controls. The recombinant proteins were expressed as soluble proteins after DEAE/dextran-mediated DNA transfection in COS cells (ATCC CRL1651) according to standard procedures (Ausubel et al., Current Protocols in Molecular Biology, John Wiley & Sons, Inc., 1994).
2. Assay for the Measurement of the Adhesion of U937 Cells to hVCAM-1(1-3)-IgG
2.1 96-well microtiter test plates (Nunc Maxisorb) were incubated at room temperature for 1 hour with 100 μl/well of a goat-anti-human IgG antibody solution (10 μg/ml in 50 mM tris, pH 9.5). After removal of the antibody solution, washing was carried out once with PBS.
2.2 150 μl/well of a blocking buffer (1% BSA in PBS) was incubated on the plates at room temperature for 0.5 hour. After removal of the blocking buffer, washing was carried out once with PBS.
2.3 100 μl per well of a cell culture supernatant of transfected COS cells were incubated on the plates at room temperature for 1.5 hours. The COS cells were transfected with a plasmid which codes for the three N-terminal immunoglobulin-like domains of VCAM-1, coupled to the Fc part of human IgG, (hVCAM-1 (1-3)-IgG). The content of hVCAM-1 (1-3)-IgG was about 0.5-1 μg/ml. After removal of the culture supernatant washing was carried out once with PBS.
2.4 The plates were incubated at room temperature for 20 minutes with 100 μl/well of Fc receptor blocking buffer (1 mg/ml of γ-globulin, 100 mM NaCl, 100 μM MgCl2, 100 μM MnCl2, 100 μM CaCl2, 1 mg/ml of BSA in 50 mM HEPES, pH 7.5). After removal of the Fc receptor blocking buffer washing was carried out once with PBS.
2.5 20 μl of binding buffer (100 mM NaCl, 100 μM MgCl2, 100 μM MnCl2, 100 μM CaCl2, 1 mg/ml of BSA in 50 mM HEPES, pH 7.5) were initially introduced, and the substances to be tested were added in 10 μl of binding buffer and incubated for 20 minutes. The controls used were antibodies against VCAM-1 (BBT, No. BBA6) and against VLA-4 (Immunotech, No. 0764). […]

T1 sequence (P13612 34-1032): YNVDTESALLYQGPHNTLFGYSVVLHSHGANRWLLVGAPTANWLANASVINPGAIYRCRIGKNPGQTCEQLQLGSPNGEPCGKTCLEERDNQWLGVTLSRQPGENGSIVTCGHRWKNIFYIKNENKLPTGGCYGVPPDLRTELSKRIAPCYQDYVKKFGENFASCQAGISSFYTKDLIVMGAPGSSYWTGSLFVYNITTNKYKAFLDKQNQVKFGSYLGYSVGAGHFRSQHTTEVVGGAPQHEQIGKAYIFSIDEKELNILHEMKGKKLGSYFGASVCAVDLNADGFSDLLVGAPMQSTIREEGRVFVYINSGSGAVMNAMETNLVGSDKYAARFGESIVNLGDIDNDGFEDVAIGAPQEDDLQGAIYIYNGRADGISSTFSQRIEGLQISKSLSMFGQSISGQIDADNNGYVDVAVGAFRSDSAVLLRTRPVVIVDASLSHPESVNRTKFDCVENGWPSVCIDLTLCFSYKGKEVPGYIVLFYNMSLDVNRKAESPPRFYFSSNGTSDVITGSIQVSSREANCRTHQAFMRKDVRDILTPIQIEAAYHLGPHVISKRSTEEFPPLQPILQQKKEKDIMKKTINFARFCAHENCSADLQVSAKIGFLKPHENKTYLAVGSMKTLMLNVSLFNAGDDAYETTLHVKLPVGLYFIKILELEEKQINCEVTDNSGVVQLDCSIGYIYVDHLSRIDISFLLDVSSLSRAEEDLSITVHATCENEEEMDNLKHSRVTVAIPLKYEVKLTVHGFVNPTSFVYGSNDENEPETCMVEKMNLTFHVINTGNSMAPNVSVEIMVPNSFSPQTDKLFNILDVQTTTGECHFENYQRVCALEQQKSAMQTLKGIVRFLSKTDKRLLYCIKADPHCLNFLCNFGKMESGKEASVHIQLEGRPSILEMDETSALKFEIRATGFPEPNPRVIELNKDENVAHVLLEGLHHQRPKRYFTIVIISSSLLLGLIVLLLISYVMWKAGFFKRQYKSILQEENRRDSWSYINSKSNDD
T1 sequence (P05556 21-798): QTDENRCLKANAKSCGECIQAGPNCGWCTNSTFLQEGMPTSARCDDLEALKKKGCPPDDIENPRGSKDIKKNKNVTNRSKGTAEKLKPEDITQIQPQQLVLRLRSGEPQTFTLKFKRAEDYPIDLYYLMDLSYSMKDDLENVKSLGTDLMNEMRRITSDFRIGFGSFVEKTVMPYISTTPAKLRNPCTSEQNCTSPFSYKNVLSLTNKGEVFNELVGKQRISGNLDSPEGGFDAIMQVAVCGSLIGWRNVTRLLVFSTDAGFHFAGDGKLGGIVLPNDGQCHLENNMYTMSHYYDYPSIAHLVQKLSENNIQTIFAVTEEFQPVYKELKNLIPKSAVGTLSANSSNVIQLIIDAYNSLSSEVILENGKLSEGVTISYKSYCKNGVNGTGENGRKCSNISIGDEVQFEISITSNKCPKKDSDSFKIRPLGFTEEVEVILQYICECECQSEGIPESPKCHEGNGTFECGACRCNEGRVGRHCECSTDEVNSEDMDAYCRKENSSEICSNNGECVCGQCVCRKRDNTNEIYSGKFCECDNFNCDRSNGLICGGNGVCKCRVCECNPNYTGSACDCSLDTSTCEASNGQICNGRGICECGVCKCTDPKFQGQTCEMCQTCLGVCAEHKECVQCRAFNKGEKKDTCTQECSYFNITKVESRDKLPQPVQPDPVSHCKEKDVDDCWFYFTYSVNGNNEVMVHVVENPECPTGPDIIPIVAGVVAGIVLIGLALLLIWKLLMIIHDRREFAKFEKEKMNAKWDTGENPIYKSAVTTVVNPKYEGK

As for `CC(C)C(C(=O)NC[C@H](NC(=O)OCC12CC3CC(CC(C3)C1)C2)C(=O)O)N1C(=O)N(Cc2ccccc2)C(C)(c2ccccc2)C1=O` (stereo partly drawn) [Example 4, (S)-3-((R,S)-2-((R,S)-4-Phenyl-3-benzyl-4-methyl-2,5-dioxoimidazolidin-1-yl)-2-isopropylacetylamino)-2-(1-adamantylmethyloxycarbonylamino)-propionic acid], the IC50 (commonly the point on the concentration scale where inhibition reaches its midpoint) worked out at 45 µM.

`CC1(c2ccccc2)C(=O)N(CC(=O)N[C@@H](CC(=O)O)C(=O)N[C@H](C(=O)O)c2ccccc2)C(=O)N1Cc1ccccc1` (stereo partly drawn) [Example 7, ((R,S)-4-Phenyl-3-benzyl-4-methyl-2,5-dioxoimidazolidin-1-yl)acetyl-L-aspartyl-L-phenylglycine] came in with a 50% inhibitory concentration (IC50) of 8 µM. In the case of `C[C@]1(c2ccc(CO)cc2)C(=O)N(CC(=O)N[C@@H](CC(=O)O)C(=O)N[C@H](C(=O)O)c2ccccc2)C(=O)N1Cc1ccccc1` [Example 8, ((S)-4-(4-Hydroxymethylphenyl)-3-benzyl-4-methyl-2,5-dioxoimidazolidin-1-yl)acetyl-L-aspartyl-L-phenylglycine] it was 4.5 µM; in that of `C[C@]1(c2ccc(CO)cc2)C(=O)N(CC(=O)NC[C@H](NC(=O)OCC23CC4CC(CC(C4)C2)C3)C(=O)O)C(=O)N1Cc1ccccc1` [Example 9, (S)-3-(((S)-4-(4-Hydroxymethylphenyl)-3-benzyl-4-methyl-2,5-dioxoimidazolidin-1-yl)acetylamino)-2-(1-adamantylmethyloxycarbonylamino)propionic acid], 4 µM; in that of `CC1(c2ccc(O)cc2)C(=O)N(CC(=O)N[C@@H](CC(=O)O)C(=O)N[C@H](C(=O)O)c2ccccc2)C(=O)N1Cc1ccccc1` (stereo partly drawn) [Example 10, ((R,S)-4-(4-Hydroxyphenyl)-3-benzyl-4-methyl-2,5-dioxoimidazolidin-1-yl)acetyl-L-aspartyl-L-phenylglycine], 9.5 µM.

Values taken from patent US6759424B2, “Imidazolidine derivatives, their preparation, their use, and pharmaceutical preparations comprising them” (Aventis Pharma Deutschland GmbH, priority 1997, dated 2004).
